The results in this text go back to PMC5925831, “Enhancement of the catalytic activity of Isopentenyl diphosphate isomerase (IDI) from Saccharomyces cerevisiae through random and site-directed mutagenesis” (Microbial Cell Factories, 2018).

Assay [1] deals with T1, IDI (isopentenyl diphosphate isomerase from Saccharomyces cerevisiae) (Saccharomyces cerevisiae, UniProt P15496).
T1 construct: gene IDI1
Conditions: 50 mM MOPS, 20 mM MgCl2, 5% glycerol, pH 7.5, 30 °C (activity assay); substrate range printed as 1–1000 mmol/L. The source says: (§1) GC of isoprene released from DMAPP by acid and heat; double-reciprocal plot on IDI (isopentenyl diphosphate isomerase from Saccharomyces cerevisiae)

Assay [2] addresses T2, IDI (isopentenyl diphosphate isomerase from Saccharomyces cerevisiae) (Saccharomyces cerevisiae, UniProt P15496, Y195F/W256C, form not given).
T2 construct: gene IDI1
To be noted: 50 mM MOPS, 20 mM MgCl2, 5% glycerol, pH 7.5, 30 °C (activity assay); substrate range printed as 1–1000 mmol/L.
From the text: as §1

T2 sequence (P15496 2-288 Y195F/W256C, form open): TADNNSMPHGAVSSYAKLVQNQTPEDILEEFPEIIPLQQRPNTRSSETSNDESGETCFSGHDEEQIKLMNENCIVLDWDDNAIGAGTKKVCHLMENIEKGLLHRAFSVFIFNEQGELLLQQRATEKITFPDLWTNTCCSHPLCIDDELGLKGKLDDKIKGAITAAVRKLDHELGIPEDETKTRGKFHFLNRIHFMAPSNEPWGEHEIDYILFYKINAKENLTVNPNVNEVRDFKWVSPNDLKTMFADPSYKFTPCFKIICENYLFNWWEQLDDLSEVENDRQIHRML
T1 sequence (P15496 2-288): as the sequence (P15496 2-288 Y195F/W256C, form open) above, with F194Y, C255W counted along it

What is called Km is the substrate concentration at which the rate is half of its maximum. Take `C=C(C)CCO[P@@](=O)(O)OP(=O)(O)O` [isopentenylpyrophosphate]: the Km in assay [1] is 41.5 ± 0.39 µM; in assay [2], 37.6 ± 0.17 µM.
